Experimental data: patent publication US20220168309A1 (F-STAR THERAPEUTICS, INC., priority 2019, published 2022)
pIC50: −log10 of the molar value.

Molecular target: STING (Homo sapiens, UniProt Q86WV6)
Assay: STING antagonist activity, cell-based ISG54 promoter-reporter luciferase measurement of IRF activity (THP-1 dual / RAW-ISG cells)
Settings: Antagonist Activity of Exemplary Compounds; cell line and agonist not given
Procedure: THP-1 dual cells (InvivoGen) were cultured under 5% CO2 at 37° C. in RPMI containing 10% fetal bovine serum (FBS), 100 IU mL-1 penicillin and 100 μg mL-1 streptomycin. RAW-ISG cells (InvivoGen) were cultured under 5% CO2 at 37° C. in DMEM containing 10% fetal bovine serum (FBS), 100 IU mL-1 penicillin and 100 μg mL-1 streptomycin. THP-1 dual cells were seeded into the 96 well assay plate on the day of assay whereas RAW cells were seeded into the 96 well assay plate 18 hours before the assay.
(§1) 50,000 cells seeded in a 96-well flat bottom white assay plate were treated with different concentrations (10 uM to 0.01 uM) of compounds for 1 h followed by STING induction with either 30 nM SB 11285 or 10 ug/mL 2′-3′ cGAMP. The cells were then incubated for 20 hours @ 37° C. in CO2 incubator before measuring IRF activation by using Quanti-Luc (InvivoGen). The % inhibition was calculated as 100−{[(luminescence of COI treated well/luminescence of non-COI treated well)/100]×100}. IC50 was calculated by plotting in Xlfit.
as §1, with “1 μM” for “30 nM”
THP1-Dual-WT cells (InvivoGen) were plated into 96-well flat bottom plate at 5×10^4 cells/140 μL/well in triplicate. Cells were then treated with diluted antagonist compounds at 10 μL/well for 1 h, followed by treatment with compounds or 2′3′-cGAMP/lipo mixture for 18 h. The levels of IRF activity were determined using Quanti-luc (InvivoGen) and calculated against IRF activity in DMSO-treated cells. IC50 and CC50 values were calculated using Xlfit.

Sequence of STING (Q86WV6 whole entry): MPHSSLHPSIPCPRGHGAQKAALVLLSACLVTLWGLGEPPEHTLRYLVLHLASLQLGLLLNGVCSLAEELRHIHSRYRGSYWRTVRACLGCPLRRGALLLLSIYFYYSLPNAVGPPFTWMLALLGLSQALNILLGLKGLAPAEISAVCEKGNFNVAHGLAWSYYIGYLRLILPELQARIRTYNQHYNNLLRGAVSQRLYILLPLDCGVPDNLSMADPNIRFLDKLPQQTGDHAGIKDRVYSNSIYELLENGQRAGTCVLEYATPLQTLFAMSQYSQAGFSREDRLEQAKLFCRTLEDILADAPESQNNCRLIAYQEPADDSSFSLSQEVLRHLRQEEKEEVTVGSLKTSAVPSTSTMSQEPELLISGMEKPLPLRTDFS

| SMILES | pIC50 |
| --- | --- |
| N#CCCOP(O)(=S)OCCCCCCCCCCCCCCCCn1cnc2nc(Cl)nc(Cl)c21 (stereo not drawn) [Compound 90, O-(2-cyanoethyl)O-(16-(2,6-dichloro-7H-purin-7-yl)hexadecyl) O-hydrogen phosphorothioate] | 5.00 to 5.30 |

Same assay, conditions: Antagonist Activity of Exemplary Compounds; cell line and agonist not given; read-out: IC50

| SMILES | pIC50 |
| --- | --- |
| Clc1nc(Cl)c2c(ncn2CCCCn2cnc3nc(Cl)nc(Cl)c32)n1 [Compound 55, 1,4-bis(2,6-dichloro-7H-purin-7-yl)butane] | 5.00 to 5.30 |
| COC(=O)C(C)(C)n1cnc2nc(Cl)nc(Cl)c21 [Compound 56, methyl 2-(2,6-dichloro-7H-purin-7-yl)-2-methylpropanoate] | < 4.70 |
| COC(=O)C(CCC(C(=O)OC)n1cnc2nc(Cl)nc(Cl)c21)n1cnc2nc(Cl)nc(Cl)c21 (stereo not drawn) [Compound 57, dimethyl 2,5-bis(2,6-dichloro-7H-purin-7-yl)hexanedioate] | 5.30 to 6.00 |
| Clc1nc(Cl)c2c(ncn2C/C=C\Cn2cnc3nc(Cl)nc(Cl)c32)n1 [Compound 58, (Z)-1,4-bis(2,6-dichloro-7H-purin-7-yl)but-2-ene] | < 4.70 |
| Cc1nc2nc(Cl)nc(Cl)c2n1CCCCCCCCCCCCn1c(C)nc2nc(Cl)nc(Cl)c21 [Compound 59, 1,12-bis(2,6-dichloro-8-methyl-7H-purin-7-yl)dodecane] | 6.00 to 9.00 |
| COC(=O)CCCCn1c(C)nc2nc(Cl)nc(Cl)c21 [Compound 60, methyl 5-(2,6-dichloro-8-methyl-7H-purin-7-yl)pentanoate] | 5.00 to 5.30 |
| Cc1nc2nc(Cl)nc(Cl)c2n1CCCCCCCCCCn1c(C)nc2nc(Cl)nc(Cl)c21 [Compound 61, 1,10-bis(2,6-dichloro-8-methyl-7H-purin-7-yl)decane] | 6.00 to 9.00 |
| Cc1nc2nc(Cl)nc(Cl)c2n1CCCCCCO [Compound 62, 6-(2,6-dichloro-8-methyl-7H-purin-7-yl)hexan-1-ol] | 5.30 to 6.00 |
| Cc1nc2nc(Cl)nc(Cl)c2n1CCCCCCCCn1c(C)nc2nc(Cl)nc(Cl)c21 [Compound 63, 1,8-bis(2,6-dichloro-8-methyl-7H-purin-7-yl)octane] | 6.00 to 9.00 |
| Cc1nc2nc(Cl)nc(Cl)c2n1CCCCn1c(C)nc2nc(Cl)nc(Cl)c21 [Compound 64, 1,4-bis(2,6-dichloro-8-methyl-7H-purin-7-yl)butane] | < 4.70 |
| Cc1nc2nc(Cl)nc(Cl)c2n1CCCCCCCl [Compound 65, 2,6-dichloro-7-(6-chlorohexyl)-8-methyl-7H-purine] | 5.30 to 6.00 |
| COC(=O)Cn1c(C)nc2nc(Cl)nc(Cl)c21 [Compound 66, methyl 2-(2,6-dichloro-8-methyl-7H-purin-7-yl)acetate] | 5.30 to 6.00 |
| COc1ccc(Cn2c(C)nc3nc(Cl)nc(Cl)c32)cc1 [Compound 67, 2,6-dichloro-7-(4-methoxybenzyl)-8-methyl-7H-purine] | 5.30 to 6.00 |
| CC(=O)N1CCC(Cn2cnc3nc(Cl)nc(Cl)c32)CC1 [Compound 68, 1-(4-((2,6-dichloro-7H-purin-7-yl)methyl)piperidin-1-yl)ethan-1-one] | 5.00 to 5.30 |
| COC(=O)CCCCCCCCCCCCCCCn1c(C)nc2nc(Cl)nc(S(C)(=O)=O)c21 [Compound 69, methyl 16-(2-chloro-8-methyl-6-(methylsulfonyl)-7H-purin-7-yl)hexadecanoate] | 6.00 to 9.00 |
| COC(=O)CCCCCCCCCCCCCCCn1c(C#CC2CC2)nc2nc(Cl)nc(Cl)c21 [Compound 70, methyl 16-(2,6-dichloro-8-(cyclopropylethynyl)-7H-purin-7-yl)hexadecanoate] | 5.30 to 6.00 |
| COC(=O)CCCCCCCCCCCCCCCn1c(-c2ccccc2)nc2nc(Cl)nc(Cl)c21 [Compound 71, methyl 16-(2,6-dichloro-8-phenyl-7H-purin-7-yl)hexadecanoate] | 5.30 to 6.00 |
| Cc1nc2nc(Cl)nc(Cl)c2n1CCCCCCCCCCCCCCCC(=O)O [Compound 72, 16-(2,6-dichloro-8-methyl-7H-purin-7-yl)hexadecanoic acid] | 4.70 to 5.00 |
| COC(=O)CCCCCCCCCCCCCCCn1c(C)nc2nc(Cl)nc(S(=O)(=O)C(C)C)c21 [Compound 74, methyl 16-(2-chloro-6-(isopropylsulfonyl)-8-methyl-7H-purin-7-yl)hexadecanoate] | 6.00 to 9.00 |
| Cc1nc2nc(Cl)nc(Cl)c2n1CCCCCCCCCCCCCCCCO [Compound 75] | 6.00 to 9.00 |
| Cc1nc2c(Cl)nc(Cl)nc2n1CCCCCCCCCCCCCCCCO [Compound 76, 16-(2,6-dichloro-8-methyl-9H-purin-9-yl)hexadecan-1-ol] | 5.00 to 5.30 |

| SMILES | pIC50 |
| --- | --- |
| CCCCCCCCCCCCCCCCn1c(C)nc2nc(Cl)nc(Cl)c21 [Compound 77, 2,6-dichloro-7-hexadecyl-8-methyl-7H-purine] | 6.00 to 9.00 |
| CCOC(=O)CCCCCCCCCCCCCCCn1c(C)nc2nc(Cl)nc(Cl)c21 [Compound 78, ethyl 16-(2,6-dichloro-8-methyl-7H-purin-7-yl)hexadecanoate] | 6.00 to 9.00 |
| Cc1nc2nc(Cl)nc(Cl)c2n1CCCCCCCCCCCCCCCC(=O)OC(C)C [Compound 79, isopropyl 16-(2,6-dichloro-8-methyl-7H-purin-7-yl)hexadecanoate] | 6.00 to 9.00 |
| COC(=O)CCCC(=O)N1CNc2nc(Cl)nc(Cl)c21 [Compound 80, methyl 5-(2,6-dichloro-8,9-dihydro-7H-purin-7-yl)-5-oxopentanoate] | < 4.70 |
| Cc1nc2nc(Cl)nc(Cl)c2n1CCCCCCCCCCCCCCCC(=O)OC(C)(C)C [Compound 81, tert-butyl 16-(2,6-dichloro-8-methyl-7H-purin-7-yl)hexadecanoate] | 5.30 to 6.00 |
| Cc1nc2nc(Cl)nc(Cl)c2n1C [Compound 82, 2,6-dichloro-7,8-dimethyl-7H-purine] | 5.00 to 5.30 |
| Cc1nc2c(Cl)nc(Cl)nc2n1C [Compound 83, 2,6-dichloro-8,9-dimethyl-9H-purine] | < 4.70 |
| Cc1nc2nc(Cl)nc(Cl)c2n1CCCCCCCCCCCCCCCC(=O)OCCO [Compound 84, 2-hydroxyethyl 16-(2,6-dichloro-8-methyl-7H-purin-7-yl)hexadecanoate] | 5.30 to 6.00 |
| Cc1nc2nc(Cl)nc(Cl)c2n1CCCCCCCCCCCCCCCC(=O)OCC(O)CO (stereo not drawn) [Compound 85, 2,3-dihydroxypropyl 16-(2,6-dichloro-8-methyl-7H-purin-7-yl)hexadecanoate] | 5.30 to 6.00 |
| Cc1nc2nc(Cl)nc(Cl)c2n1CCCCCCCCCCCCCCCC(=O)N1CCNCC1 [Compound 87, 16-(2,6-dichloro-8-methyl-7H-purin-7-yl)-1-(piperazin-1-yl)hexadecan-1-one] | 4.70 to 5.00 |
| O=P(O)(O)OCCCCCCCCCCCCCCCCn1cnc2nc(Cl)nc(Cl)c21 [Compound 88, 16-(2,6-dichloro-7H-purin-7-yl)hexadecyl dihydrogen phosphate] | < 4.70 |
| COC(=O)CCCCCCCCCCCCCCCn1c(C(C)C)nc2nc(Cl)nc(Cl)c21 [Compound 89, methyl 16-(2,6-dichloro-8-isopropyl-7H-purin-7-yl)hexadecanoate] | 6.00 to 9.00 |
| COC(=O)CCCCCCCCCCCCCCCn1c(CCl)nc2nc(Cl)nc(Cl)c21 [Compound 91, Methyl 16-(2,6-dichloro-8-(chloromethyl)-7H-purin-7-yl)hexadecanoate] | 6.00 to 9.00 |
| COCc1nc2nc(Cl)nc(Cl)c2n1CCCCCCCCCCCCCCCC(=O)OC [Compound 92, Methyl 16-(2,6-dichloro-8-(methoxymethyl)-7H-purin-7-yl)hexadecanoate] | 6.00 to 9.00 |
| COC(=O)CCCCCCCCCCCCCCCn1c(CO)nc2nc(Cl)nc(Cl)c21 [Compound 93, Methyl 16-(2,6-dichloro-8-(hydroxymethyl)-7H-purin-7-yl)hexadecanoate] | 6.00 to 9.00 |
| CNC(=O)CCCCCCCCCCCCCCCn1c(C)nc2nc(Cl)nc(Cl)c21 [Compound 94, 16-(2,6-dichloro-8-methyl-7H-purin-7yl)-N-methylhexadecanamide] | 6.00 to 9.00 |
| Cc1nc2nc(Cl)nc(S(=O)(=O)C(C)C)c2n1CCCCCCCCCCCCCCCC(=O)OC(C)C [Compound 96, isopropyl 16-(2-chloro-6-(isopropylsulfonyl)-8-methyl-7H-purin-7-yl)hexadecanoate] | 6.00 to 9.00 |
| CCCCCCCCCCCCCCCCn1c(C)nc2nc(Cl)nc(S(=O)(=O)C(C)C)c21 [Compound 97, 2-chloro-7-hexadecyl-6-(isopropylsulfonyl)-8-methyl-7H-purine] | 6.00 to 9.00 |
| Cc1nc2nc(Cl)nc(Cl)c2n1CCCCCCCCCCCCCCCC(=O)OCC(C)O (stereo not drawn) [Compound 98, 2-hydroxypropyl 16-(2,6-dichloro-8-methyl-7H-purin-7-yl)hexadecanoate] | 5.30 to 6.00 |
| CCOCCOCCOC(=O)CCCCCCCCCCCCCCCn1c(C)nc2nc(Cl)nc(Cl)c21 [Compound 99, 2-(2-ethoxyethoxy)ethyl 16-(2,6-dichloro-8-methyl-7H-purin-7-yl)hexadecanoate] | 5.30 to 6.00 |
